Structures can show the parent of a compound that is named as a salt.
Test system: HCT116
Settings: 72 h
Outline: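 HCT116 cells were seeded at 250 per well in 1536-well plates and left 5 h to attach. CellTiter-Glo luminescence was scaled to vehicle (0%) and positive control (-100%), then pattern-corrected. IC50 and maximal efficacy came from four-parameter Hill fits.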

Structure (SMILES)	IC50 cell viability (ICRF193 0 nM)	IC50 cell viability (ICRF193 200 nM)
CC(O)Cn1cnc2c1c(=O)n(C)c(=O)n2C (configuration not stated) [Proxyphylline]	> 45.8 µM	> 45.8 µM
COCCCN1CCC(NC(=O)c2cc(Cl)c(N)c3c2OCC3)CC1 [Prucalopride]	> 45.8 µM	> 45.8 µM
Cc1oc(=O)oc1CN1CCN(c2cc3c(cc2F)c(=O)c(C(=O)O)c2n3C(C)S2)CC1 (configuration not stated) [Prulifloxacin]	> 45.8 µM	> 45.8 µM
CN1CCCN=C1/C=C/c1cccs1 [Pyrantel tartrate]	> 45.8 µM	> 45.8 µM
NC(=O)c1cnccn1 [Pyrazinamide]	> 45.8 µM	> 45.8 µM
C=CC=CCC1=C(C)C(OC(=O)C2C(C=C(C)C)C2(C)C)CC1=O (configuration not stated) [Pyrethrin 1]	> 45.8 µM	> 45.8 µM
CNC(=O)OCc1cccc(COC(=O)NC)n1 [Pyricarbate]	> 45.8 µM	> 45.8 µM
CN(C)C(=O)Oc1ccc[n+](C)c1 [Pyridostigmine bromide]	> 45.8 µM	> 45.8 µM
Cc1ncc(COP(=O)(O)O)c(C=O)c1O [Pyridoxal phosphate hydrate]	> 45.8 µM	> 45.8 µM
Cc1ncc(COP(=O)(O)O)c(CN)c1O [Pyridoxamine phosphate]	> 45.8 µM	> 45.8 µM
Cc1ncc(CO)c(CO)c1O [Pyridoxine]	> 45.8 µM	> 45.8 µM
COc1ccc(CN(CCN(C)C)c2ccccn2)cc1 [Pyrilamine]	> 45.8 µM	> 45.8 µM
CC(COc1ccc(Oc2ccccc2)cc1)Oc1ccccn1 (configuration not stated) [Pyriproxyfen]	> 45.8 µM	> 45.8 µM
Cc1ncc(CSSCc2cnc(C)c(O)c2CO)c(CO)c1O [Pyrithioxin dihydrochloride]	> 45.8 µM	> 45.8 µM
O=P(O)(O)OP(=O)(O)O [Pyrophosphoric acid]	> 45.8 µM	> 45.8 µM
C=C[C@H]1CN2CC[C@H]1C[C@H]2[C@H](OC(=O)OCC)c1ccnc2ccc(OC)cc12 [QUININE ETHYL CARBONATE]	> 45.8 µM	> 45.8 µM
CC(C(=O)O)c1ccc(C2CCCCC2)c2ccccc12 (configuration not stated) [Quadrisol]	> 45.8 µM	> 45.8 µM
O=c1c(O)c(-c2ccc(O)c(O)c2)oc2cc(O)cc(O)c12 [Quercetin]	> 45.8 µM	> 45.8 µM
OCCOCCN1CCN(C2=Nc3ccccc3Sc3ccccc32)CC1 [Quetiapine]	> 45.8 µM	> 45.8 µM
CCCN1CC(NS(=O)(=O)N(CC)CC)CC2Cc3c(O)cccc3CC21 (configuration not stated) [Quinagolide (hydrochloride)]	> 45.8 µM	> 45.8 µM
CCOC(=O)[C@H](CCc1ccccc1)N[C@@H](C)C(=O)N1Cc2ccccc2C[C@H]1C(=O)O [Quinapril hydrochloride]	> 45.8 µM	> 45.8 µM
CCC1NC(=O)c2cc(S(N)(=O)=O)c(Cl)cc2N1 (configuration not stated) [Quinethazone]	> 45.8 µM	> 45.8 µM
C=C[C@H]1CN2CC[C@H]1C[C@@H]2[C@@H](O)c1ccnc2ccc(OC)cc12 [Quinidine hydrochloride monohydrate]	> 45.8 µM	> 45.8 µM
CC(C)NC[C@@H](O)COc1ccc(CC(N)=O)cc1 [R-(+)-Atenolol]	> 45.8 µM	> 45.8 µM
CNC(C)C(O)c1ccccc1 (configuration not stated) [RACEPHEDRINE HYDROCHLORIDE]	> 45.8 µM	> 45.8 µM
CC(CCc1ccc(O)cc1)NCC(O)c1ccc(O)cc1 (configuration not stated) [RACTOPAMINE HYDROCHLORIDE]	> 45.8 µM	> 45.8 µM
CC1=C(/C=C/C(C)=C/C=C/C(C)=C/CO)C(C)(C)CCC1 [RETINOL]	> 45.8 µM	> 45.8 µM
Cc1cc2nc3c(=O)[nH]c(=O)nc-3n(CC(O)C(O)C(O)COP(=O)(O)O)c2cc1C (configuration not stated) [RIBOFLAVIN 5-PHOSPHATE SODIUM]	> 45.8 µM	> 45.8 µM
Fc1cccc(Br)c1NC1=NCCN1 [ROMIFIDINE]	> 45.8 µM	> 45.8 µM

The remaining lines, values ahead:

IC50 cell viability (ICRF193 0 nM)	IC50 cell viability (ICRF193 200 nM)	Structure (SMILES)
> 45.8 µM	> 45.8 µM	CCc1ccc(Nc2c(F)c(F)cc(F)c2F)c(CC(=O)O)c1 [ROBENACOXIB]
> 45.8 µM	> 45.8 µM	CCCCCCCCCCCCCCCCCC(=O)NCCCC[C@H](NC(=O)CC[C@@H](NC(=O)[C@H](C)NC(=O)[C@@H](C)O[C@H]1[C@H](O)[C@@H](CO)OC(O)[C@@H]1NC(C)=O)C(N)=O)C(=O)O (some centres not stated) [ROMURTIDE]
> 45.8 µM	> 45.8 µM	COCCCOc1ccnc(C[S+]([O-])c2nc3ccccc3[nH]2)c1C (configuration not stated) [Rabeprazole]
> 45.8 µM	> 45.8 µM	Cc1nnc(C(=O)NC(C)(C)c2nc(C(=O)NCc3ccc(F)cc3)c(O)c(=O)n2C)o1 [Raltegravir]
> 45.8 µM	> 45.8 µM	Cc1nc(=O)c2cc(CN(C)c3ccc(C(=O)N[C@@H](CCC(=O)O)C(=O)O)s3)ccc2[nH]1 [Raltitrexed]
> 45.8 µM	> 45.8 µM	O=C(O)CCn1c2c(c3ccccc31)C[C@H](NS(=O)(=O)c1ccc(F)cc1)CC2 [Ramatroban]
> 45.8 µM	> 45.8 µM	CCC(=O)NCC[C@@H]1CCc2ccc3c(c21)CCO3 [Ramelteon]
> 45.8 µM	> 45.8 µM	CCOC(=O)[C@H](CCc1ccccc1)N[C@@H](C)C(=O)N1[C@H](C(=O)O)C[C@@H]2CCC[C@@H]21 [Ramipril]
> 45.8 µM	> 45.8 µM	Cn1cc(C(=O)[C@@H]2CCc3[nH]cnc3C2)c2ccccc21 [Ramosetron hydrochloride]
> 45.8 µM	> 45.8 µM	CNC(=C[N+](=O)[O-])NCCSCc1ccc(CN(C)C)o1 [Ranitidine]
> 45.8 µM	> 45.8 µM	COc1ccccc1OCC(O)CN1CCN(CC(=O)Nc2c(C)cccc2C)CC1 (configuration not stated) [Ranolazine]
> 45.8 µM	> 45.8 µM	C=CC[N+]1([C@H]2C[C@H]3[C@@H]4CC[C@H]5C[C@H](OC(C)=O)[C@@H](N6CCCCC6)C[C@]5(C)[C@H]4CC[C@]3(C)[C@H]2OC(=O)CC)CCCCC1 [Rapacuronium bromide]
> 45.8 µM	> 45.8 µM	C#CCN[C@@H]1CCc2ccccc21 [Rasagiline mesylate]
> 45.8 µM	> 45.8 µM	O=C(NC(Cc1cc(=O)[nH]c2ccccc12)C(=O)O)c1ccc(Cl)cc1 (configuration not stated) [Rebamipide]
> 45.8 µM	> 45.8 µM	CCOc1ccccc1OC(c1ccccc1)C1CNCCO1 (configuration not stated) [Reboxetine mesylate]
> 45.8 µM	> 45.8 µM	CCOc1cc(CC(=O)N[C@@H](CC(C)C)c2ccccc2N2CCCCC2)ccc1C(=O)O [Repaglinide]
> 45.8 µM	> 45.8 µM	COC(=O)[C@H]1[C@H]2C[C@@H]3c4[nH]c5cc(OC)ccc5c4CCN3C[C@H]2C[C@@H](OC(=O)/C=C/c2cc(OC)c(OC)c(OC)c2)[C@@H]1OC [Rescinnamin]
